Data as given in the supplement of paper PMC10307832.

What was measured:
Assay in all cases: relative viability (nuclei count vs DMSO), 5 days (fraction); higher = more cells survive
[1] = test system: NCI-H2009
How it was run: (§1)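 Values are medians from duplicate plates. Each reflects relative viability, defined as the nuclei count of treated wells over that of vehicle wells. Lung cancer cell lines in 1536-well plates were pin-tool dosed one day after seeding with one drug alone or with a fixed anchor-drug dose plus five library-drug doses (not always all listed) in √10 steps, then fixed, stained and imaged at 4× after 5 days.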

[2] = test system: NCI-H1975
How it was run: as §1

[3] = test system: NCI-H460
How it was run: as §1

[4] = test system: CAL-12T
How it was run: as §1

[5] = test system: NCI-H1755
How it was run: as §1

[6] = test system: EMC-BAC-2
How it was run: as §1

[7] = test system: HCC-827
How it was run: as §1

[8] = test system: NCI-H1915
How it was run: as §1

[9] = test system: COR-L 105
How it was run: as §1

[10] = test system: NCI-H1792
How it was run: as §1

[11] = test system: SW 1573
How it was run: as §1

[12] = test system: NCI-H2228
How it was run: as §1

[13] = test system: NCI-H1355
How it was run: as §1

[14] = test system: HCC-366
How it was run: as §1

[15] = test system: NCI-H727
How it was run: as §1

[16] = test system: NCI-H1395
How it was run: as §1

[17] = test system: SK-LU-1
How it was run: as §1

[18] = test system: HARA
How it was run: as §1

[19] = test system: NCI-H23
How it was run: as §1

[20] = test system: HOP-62
How it was run: as §1

[21] = test system: NCI-H1437
How it was run: as §1

[22] = test system: A-427
How it was run: as §1

With `O=C(O)c1ccc(-c2c[nH]c3ncc(-c4ccccc4)cc23)cc1C1CCCC1` + CC1(C)CCC(c2ccc(Cl)cc2)=C(CN2CCN(c3ccc(C(=O)NS(=O)(=O)c4ccc(N[C@H](CCN5CCOCC5)CSc5ccccc5)c(S(=O)(=O)C(F)(F)F)c4)cc3)CC2)C1 [Navitoclax] (partner 0.5 µM) the relative viability ([1]; first compound 0.04 µM) was 1.15, the relative viability ([1]; first compound 0.1265 µM) was 1.1 and the relative viability ([1]; first compound 0.4 µM) was 1.15. It also gave a relative viability ([1]; first compound 1.265 µM) of 0.969, a relative viability ([2]; first compound 0.04 µM) of 1.13 and a relative viability ([2]; first compound 0.1265 µM) of 1.25. The relative viability ([2]; first compound 0.4 µM) was 1.1, the relative viability ([2]; first compound 1.265 µM) was 1.17 and the relative viability ([3]; first compound 0.04 µM) was 1.08. For the same molecule, the relative viability ([3]; first compound 0.1265 µM) was 1.18, the relative viability ([3]; first compound 0.4 µM) was 1.14 and the relative viability ([3]; first compound 1.265 µM) was 0.962. It also gave a relative viability ([4]; first compound 0.04 µM) of 1.26, a relative viability ([4]; first compound 0.1265 µM) of 1.21 and a relative viability ([4]; first compound 0.4 µM) of 1.11. It also gave a relative viability ([4]; first compound 1.265 µM) of 1.05, a relative viability ([5]; first compound 0.04 µM) of 0.98 and a relative viability ([5]; first compound 0.1265 µM) of 1.05. The relative viability ([5]; first compound 0.4 µM) was 1.03, the relative viability ([5]; first compound 1.265 µM) was 0.927 and the relative viability ([6]; first compound 0.04 µM) was 1.18. The relative viability ([6]; first compound 0.1265 µM) was 1.23, the relative viability ([6]; first compound 0.4 µM) was 1.16 and the relative viability ([6]; first compound 1.265 µM) was 1.22. It also gave a relative viability ([7]; first compound 0.04 µM) of 0.95, a relative viability ([7]; first compound 0.1265 µM) of 1.04 and a relative viability ([7]; first compound 0.4 µM) of 0.979. For the same molecule, the relative viability ([7]; first compound 1.265 µM) was 0.798, the relative viability ([8]; first compound 0.04 µM) was 0.769 and the relative viability ([8]; first compound 0.1265 µM) was 0.77. It also gave a relative viability ([8]; first compound 0.4 µM) of 0.609, a relative viability ([8]; first compound 1.265 µM) of 0.502 and a relative viability ([9]; first compound 0.04 µM) of 0.818. It also gave a relative viability ([9]; first compound 0.1265 µM) of 0.95, a relative viability ([9]; first compound 0.4 µM) of 0.733 and a relative viability ([9]; first compound 1.265 µM) of 0.717. It also gave a relative viability ([10]; first compound 0.04 µM) of 0.516, a relative viability ([10]; first compound 0.1265 µM) of 0.728 and a relative viability ([10]; first compound 0.4 µM) of 0.661. The relative viability ([10]; first compound 1.265 µM) was 0.588, the relative viability ([11]; first compound 0.04 µM) was 1.02 and the relative viability ([11]; first compound 0.1265 µM) was 1.22. For the same molecule, the relative viability ([11]; first compound 0.4 µM) was 1.05, the relative viability ([11]; first compound 1.265 µM) was 0.619 and the relative viability ([12]; first compound 0.04 µM) was 0.927. For the same molecule, the relative viability ([12]; first compound 0.1265 µM) was 0.778, the relative viability ([12]; first compound 0.4 µM) was 0.98 and the relative viability ([12]; first compound 1.265 µM) was 0.793. For the same molecule, the relative viability ([13]; first compound 0.04 µM) was 0.995, the relative viability ([13]; first compound 0.1265 µM) was 0.957 and the relative viability ([13]; first compound 0.4 µM) was 1.03. The relative viability ([13]; first compound 1.265 µM) was 0.683, the relative viability ([14]; first compound 0.04 µM) was 0.993 and the relative viability ([14]; first compound 0.1265 µM) was 1.2. It also gave a relative viability ([14]; first compound 0.4 µM) of 0.964, a relative viability ([14]; first compound 1.265 µM) of 1.14 and a relative viability ([15]; first compound 0.04 µM) of 0.414. It also gave a relative viability ([15]; first compound 0.1265 µM) of 0.422, a relative viability ([15]; first compound 0.4 µM) of 0.476 and a relative viability ([15]; first compound 1.265 µM) of 0.515. It also gave a relative viability ([16]; first compound 0.04 µM) of 1.13, a relative viability ([16]; first compound 0.1265 µM) of 1.05 and a relative viability ([16]; first compound 0.4 µM) of 1.03. The relative viability ([16]; first compound 1.265 µM) was 0.915, the relative viability ([17]; first compound 0.04 µM) was 0.982 and the relative viability ([17]; first compound 0.1265 µM) was 1.01. For the same molecule, the relative viability ([17]; first compound 0.4 µM) was 0.697, the relative viability ([17]; first compound 1.265 µM) was 0.482 and the relative viability ([18]; first compound 0.04 µM) was 1.08. The relative viability ([18]; first compound 0.1265 µM) was 1.14, the relative viability ([18]; first compound 0.4 µM) was 1.09 and the relative viability ([18]; first compound 1.265 µM) was 1.04. The relative viability ([19]; first compound 0.04 µM) was 0.804, the relative viability ([19]; first compound 0.1265 µM) was 0.944 and the relative viability ([19]; first compound 0.4 µM) was 0.757. For the same molecule, the relative viability ([19]; first compound 1.265 µM) was 0.724, the relative viability ([20]; first compound 0.04 µM) was 1.05 and the relative viability ([20]; first compound 0.1265 µM) was 1.13. For the same molecule, the relative viability ([20]; first compound 0.4 µM) was 1.05, the relative viability ([20]; first compound 1.265 µM) was 0.76 and the relative viability ([21]; first compound 0.04 µM) was 1.03. The relative viability ([21]; first compound 0.1265 µM) was 1.22, the relative viability ([21]; first compound 0.4 µM) was 0.955 and the relative viability ([21]; first compound 1.265 µM) was 0.407. For the same molecule, the relative viability ([22]; first compound 0.04 µM) was 1.02, the relative viability ([22]; first compound 0.1265 µM) was 0.936 and the relative viability ([22]; first compound 0.4 µM) was 0.868. It also gave a relative viability ([22]; first compound 1.265 µM) of 0.708.
